Assay results reported in EP0322748B1, “Antibiotic NK86-0279, process for production of the same and application of the same” (NIPPON KAYAKU KABUSHIKI KAISHA, priority 1987, dated 1989).
In brackets after ≈: the same amount, converted by molar mass.

How the values were obtained:
[1] = tested on: HeLa S₃ cells; test: growth-inhibitory effect on HeLa S3 culture cells, dye exclusion method; format: cell-based; settings: Homo sapiens, 72 h, three days after the addition
Experimental: The growth-inhibitory effect of the compound of the present invention on HeLa S₃ culture cells was examined. A 96-well plate was inoculated with HeLa S₃ cells at a ratio of 1.5 x 10³ cells/well and incubated in an incubator at 37°C under 5% CO2 for 24 hours. One day after the inoculation, the compound of the present invention was added to the culture medium at various concentrations. Three days after the addition, cells in each well were counted by the dye exclusion method to thereby evaluate the growth-inhibitory effect of the compound of the present invention at various concentrations on HeLa S₃ cells.

[2] = tested on: cancer of the mouse colon (colon 26); test: anti-cancer action against grafted mouse colon cancer, prolongation of life; format: in vivo, BALB/c mouse
Excerpt: The anti-cancer action of the compound of the present invention against the cancer of the mouse colon (colon 26) was examined. A cancer debris of mouse colon having an area of 2 mm³ was grafted into a subcutaneous portion of the left body side of a 6 week-old male BALB/c mouse, and the compound of the present invention was intraperitoneally administered to the mouse in various concentrations every day from the next day of the graft once a day for 9 days. The general conditions of the mouse were observed every day after the initiation of the administration. The percentage prolongation of life (T/C) of the mouse with respect to the compound of the present invention was determined from the ratio of the average survival time on the groups of administration of the compound of the present invention relative to that on the control group.

[3] = tested on: human pulmonary cancer cells (PC-3); test: growth-inhibitory effect on human pulmonary cancer cells, dye exclusion method; format: cell-based; settings: 72 h
Experimental: The growth-inhibitory effects of the compound of the present invention on mouse pulmonary cancer cells (LL) and human plumonary cancer cells (PC-3) were examined.
A 96-well plate was inoculated with mouse pulmonary cancer cells at a ratio of 8.0 x 10² cells per well, while another 96-well plate was inoculated with human pulmonary cancer cells at a ratio of 2.5 x 10³ per well. These cells were incubated in an incubator at 37°C under 5 % CO₂ for 24 hours. Then the compound of the present invention was added thereto at various concentrations. Cells in each well were counted by the dye exclusion method three days after the addition to thereby evaluate the growth-inhibitory effect of the test compound on the mouse pulmonary cancer cells (LL) and that on the human pulmonary cancer cells (PC-3).

[4] = tested on: mouse melanoma cells (B16); test: growth-inhibitory effect on mouse melanoma cells, dye exclusion method; format: cell-based
Experimental: The growth-inhibitory effects of the compound of the present invention on mouse melanoma cells (B16) and human melanoma cells (A375) were examined. A 96-well plate was inoculated with mouse melanoma cells at a ratio of 1.5 x 10³ cells per well, while another 96-well plate was inoculated with human melanoma cells at a ratio of 1.0 x 10³ per well. These cells were incubated in an incubator at 37°C under 5 % CO₂. Then the compound of the present invention was added thereto at various concentrations. Cells in each well were counted by the dye exclusion method 65 hours after the addition to thereby evaluate the growth-inhibitory effect of the test compound on the mouse melanoma cells and that on the human melanoma cells.

[5] = tested on: mouse malignant melanoma (B16 melanotic melanoma); test: in-vivo test by peroral administration against mouse malignant melanoma, tumor volume; parameters: species or system C57BL/6 mouse
Excerpt: The anti-cancer action of the compound of the present invention against mouse malignant melanoma (B16 melanotic melanoma) was examined. 5 x 10⁵ mouse malignant melanoma cells were inoculated into a subcutaneous portion of the right body side of a 6 week-old male C57BL/6 mouse, and the compound of the present invention was perorally administered to the mouse in various concentrations every day from the next day or from 7 days after the inoculation once a day for 5 days. On the 11 days after the inoculation, the minor axis and the major axis of the tumor were measured, and the volume of the tumor was determined by using the following equation: (minor axis)² x […] [formula] . Then, the percentage inhibition of proliferation of each tumor with respect to the compound of the present invention was determined from the ratio of the volume of the tumor on the groups of administration of the compound of the present invention relative to that on the control group.

[6] = tested on: vascularization by the Ehrlich ascites tumor cells crude extract; test: vascularization-inhibitory effect, corneal assay; format: in vivo; settings: slow-releasing pellet in rabbit cornea, compared with a control group
Experimental: The vascularization-inhibitory effect of the compound of the present invention was examined by corneal assay reported by M.A. Gimbrone et al. (J. National Cancer Inst., 52, 413 (1974)). Namely, the center of the cornea of the eye of a rabbit was incised with a knife at a length of approximately 2 mm to thereby form a pouch. Then a slow-releasing pellet containing 100 µg of a crude extract of Ehrlich ascites tumor cells, which had been preliminarily prepared according to a method proposed by R. Langer et al. (Nature, 263, 797 […]), was introduced into the pouch. Further another slow-releasing pellet containing 0.3 to 81 µg of the compound of the present invention was introduced thereinto so as to contact these pellets with each other. Then the degree of vascularization was observed four, six, eight and ten days after the introduction.

Work on `CCC1C=CC=CCC(C)C(O)C(C)(O)C(=O)C(C)C(O)C(C)C(=O)C(C)C(O)C(C)C=CC(=O)OC2C(C)C(CC1)OC1(OC(CC(C)O)C(C)CC1=O)C2CC` (stereo not shown) [NK86-0279] yielded an IC50 ([1]; HeLa S₃ cells, read-out: IC₅₀) of 0.0027 µg/mL (≈ 0.0033 µM), an inhibition at 0.00064 µg/mL ([1]; HeLa, 0.00064 µg/ml, read-out: Growth-inhibitory ratio) of 22.9% and an inhibition at 0.0032 µg/mL ([1]; HeLa, 0.0032 µg/ml, read-out: Growth-inhibitory ratio) of 53.5%. It also gave an inhibition at 0.016 µg/mL ([1]; HeLa, 0.016 µg/ml, read-out: Growth-inhibitory ratio) of 61.2%, an inhibition at 0.08 µg/mL ([1]; HeLa, 0.08 µg/ml, read-out: Growth-inhibitory ratio) of 73.5% and an inhibition at 0.4 µg/mL ([1]; HeLa, 0.4 µg/ml, read-out: Growth-inhibitory ratio) of 81.2%. For the same compound, the “T/C (percentage prolongation of life)” value ([2]; 0.063 mg/kg intraperitoneally once a day for 9 days) was 136%, the “T/C (percentage prolongation of life)” value ([2]; 0.125 mg/kg intraperitoneally once a day for 9 days) was 130% and the “T/C (percentage prolongation of life)” value ([2]; 0.250 mg/kg intraperitoneally once a day for 9 days) was 153%. The “T/C (percentage prolongation of life)” value ([2]; 0.500 mg/kg intraperitoneally once a day for 9 days) was 143%, the IC50 ([3]; human pulmonary cancer cells (PC-3), three days after the addition, read-out: IC₅₀) was 2.13 µg/mL (≈ 2.6 µM) and the inhibition at 0.024 µg/mL ([3]; Homo sapiens, PC-3, 0.024 µg/ml, read-out: Growth-inhibitory ratio) was 25.1%. For the same compound, the inhibition at 0.061 µg/mL ([3]; Homo sapiens, PC-3, 0.061 µg/ml, read-out: Growth-inhibitory ratio) was 12%, the inhibition at 0.098 µg/mL ([3]; Homo sapiens, PC-3, 0.098 µg/ml, read-out: Growth-inhibitory ratio) was 28.1% and the inhibition at 0.39 µg/mL ([3]; Homo sapiens, PC-3, 0.39 µg/ml, read-out: Growth-inhibitory ratio) was 28%. The inhibition at 1.56 µg/mL ([3]; Homo sapiens, PC-3, 1.56 µg/ml, read-out: Growth-inhibitory ratio) was 38.1%, the inhibition at 6.25 µg/mL ([3]; Homo sapiens, PC-3, 6.25 µg/ml, read-out: Growth-inhibitory ratio) was 85.9% and the inhibition at 25 µg/mL ([3]; Homo sapiens, PC-3, 25 µg/ml, read-out: Growth-inhibitory ratio) was 99.3%. For the same compound, the inhibition at 100 µg/mL ([3]; Homo sapiens, PC-3, 100 µg/ml, read-out: Growth-inhibitory ratio) was 97.2%, the inhibition at 0.0061 µg/mL ([4]; Mus musculus, 65 h, B16, 0.0061 µg/ml, read-out: Growth-inhibitory ratio) was 5.3% and the inhibition at 0.024 µg/mL ([4]; Mus musculus, 65 h, B16, 0.024 µg/ml, read-out: Growth-inhibitory ratio) was 36.8%. It also gave an inhibition at 0.098 µg/mL ([4]; Mus musculus, 65 h, B16, 0.098 µg/ml, read-out: Growth-inhibitory ratio) of 43.1%, an inhibition at 0.39 µg/mL ([4]; Mus musculus, 65 h, B16, 0.39 µg/ml, read-out: Growth-inhibitory ratio) of 45.3% and an inhibition at 1.56 µg/mL ([4]; Mus musculus, 65 h, B16, 1.56 µg/ml, read-out: Growth-inhibitory ratio) of 48.9%. It also gave an inhibition at 6.25 µg/mL ([4]; Mus musculus, 65 h, B16, 6.25 µg/ml, read-out: Growth-inhibitory ratio) of 89.7%, an inhibition at 25 µg/mL ([4]; Mus musculus, 65 h, B16, 25 µg/ml, read-out: Growth-inhibitory ratio) of 105% and an inhibition at 100 µg/mL ([4]; Mus musculus, 65 h, B16, 100 µg/ml, read-out: Growth-inhibitory ratio) of 105%. The IC50 ([4]; mouse melanoma cells (B16), 65 hours after the addition, read-out: IC₅₀) was 1.62 µg/mL (≈ 1.98 µM), the “Growth-inhibitory ratio (tumor volume)” value ([5]; 0.5 mg/kg perorally once a day for 5 days, administered from 7 days after the inoculation) was 44.7% and the “Growth-inhibitory ratio (tumor volume)” value ([5]; 0.5 mg/kg perorally once a day for 5 days, administered from the next day of the inoculation) was 90.5%. For the same compound, the “Growth-inhibitory ratio (tumor volume)” value ([5]; 1.0 mg/kg perorally once a day for 5 days, administered from 7 days after the inoculation) was 72.3%, the “Growth-inhibitory ratio (tumor volume)” value ([5]; 1.0 mg/kg perorally once a day for 5 days, administered from the next day of the inoculation) was 94.6% and the “Growth-inhibitory ratio (tumor volume)” value ([5]; 2.0 mg/kg perorally once a day for 5 days, administered from 7 days after the inoculation) was 57.4%. The “Growth-inhibitory ratio (tumor volume)” value ([5]; 2.0 mg/kg perorally once a day for 5 days, administered from the next day of the inoculation) was 69.5%, the “Growth-inhibitory ratio (tumor volume)” value ([5]; 4.0 mg/kg perorally once a day for 5 days, administered from 7 days after the inoculation) was 75.5% and the “Growth-inhibitory ratio (tumor volume)” value ([5]; 4.0 mg/kg perorally once a day for 5 days, administered from the next day of the inoculation) was 64.5%. The “Growth-inhibitory ratio (tumor volume)” value ([5]; 8.0 mg/kg perorally once a day for 5 days, administered from 7 days after the inoculation) was 67.0%, the “Growth-inhibitory ratio (tumor volume)” value ([5]; 8.0 mg/kg perorally once a day for 5 days, administered from the next day of the inoculation) was 66.0% and the degree of vascularization ([6]; 1 µg or above) was “significantly retarded till the fourth day”. The degree of vascularization ([6]; 1.7 µg or above) was “till the eighth day”.
